Assay results taken from patent US9440982B2 (Eolas Therapeutics, Inc., priority 2012, dated 2016).
Where two headings read alike, the source gives them in different places.

How the values were obtained:
OX1 = target: T1, OX1 (Homo sapiens, UniProt O43613); assay: Orexin receptor cell-based functional assay, [Ca2+]i by FLIPR, CHO-OX1 cells
T1 construct: expressed in transfected cells; host or cells: CHO (CHO-OX1, kept under selection antibiotic)
T1 sequence (O43613 1-425): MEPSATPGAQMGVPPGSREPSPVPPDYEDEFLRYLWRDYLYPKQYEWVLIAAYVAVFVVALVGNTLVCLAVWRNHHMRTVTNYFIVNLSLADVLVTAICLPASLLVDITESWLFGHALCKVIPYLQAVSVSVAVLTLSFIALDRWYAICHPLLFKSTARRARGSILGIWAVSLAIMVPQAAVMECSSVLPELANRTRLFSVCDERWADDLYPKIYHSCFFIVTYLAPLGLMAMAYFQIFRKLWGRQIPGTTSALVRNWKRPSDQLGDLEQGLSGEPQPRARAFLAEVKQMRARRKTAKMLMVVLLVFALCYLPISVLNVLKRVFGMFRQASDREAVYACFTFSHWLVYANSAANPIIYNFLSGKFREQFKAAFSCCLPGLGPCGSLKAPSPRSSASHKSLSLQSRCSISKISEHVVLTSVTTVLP
Summary of the method: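 Antagonist mode FLIPR calcium read in CHO-OX1 and CHO-OX2 lines. Test compounds, dosed 0.1 nM-10 μM, preincubated 30 min after 37° C dye loading with 2.5 mM probenecid (calcium4 for 30 min or calcium6 for 2 h).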

CYP3A4 = target: T2, CYP3A4 (Homo sapiens, UniProt P08684); assay: Cytochrome P450 inhibition assay (midazolam hydroxylation); assay type: in vitro ADME; conditions: human, human liver microsomes, probe midazolam (hydroxylation to 1′-hydroxymidazolam), 10 μM test compound, midazolam at approximately its Km
T2 construct: pre-incubated with human liver microsomes and NADPH; from tissue; host or cells: human liver microsomes
Summary of the method: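 Percent inhibition of midazolam 1′-hydroxylation by 10 μM compound was measured, midazolam dosed at about Km. Time-dependent inhibition was probed by a 30 min preincubation of compound with human liver microsomes and NADPH ahead of substrate, compared against samples without preincubation.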

[1] = CHO-OX1 cells, [Ca2+]i by FLIPR, antagonist dose-range 0.1 nM-10 μM, EC90 of OXA, read-out: OX1

T2 sequence (P08684 whole entry): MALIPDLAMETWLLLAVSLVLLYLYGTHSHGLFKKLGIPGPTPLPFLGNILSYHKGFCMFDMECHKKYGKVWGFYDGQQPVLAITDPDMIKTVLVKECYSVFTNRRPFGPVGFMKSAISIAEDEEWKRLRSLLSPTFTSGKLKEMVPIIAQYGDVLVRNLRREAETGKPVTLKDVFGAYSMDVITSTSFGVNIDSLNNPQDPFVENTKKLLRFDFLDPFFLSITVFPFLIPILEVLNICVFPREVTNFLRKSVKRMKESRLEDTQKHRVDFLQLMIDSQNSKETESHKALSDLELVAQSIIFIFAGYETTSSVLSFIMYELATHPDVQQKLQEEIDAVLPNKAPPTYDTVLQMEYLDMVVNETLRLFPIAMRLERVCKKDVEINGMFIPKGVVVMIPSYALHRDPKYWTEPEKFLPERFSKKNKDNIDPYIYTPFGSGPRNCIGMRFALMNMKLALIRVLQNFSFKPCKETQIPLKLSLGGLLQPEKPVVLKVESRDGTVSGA

Row | Structure (SMILES) | IC50 (OX1; [1]) [µM] | inhibition at 10 µM (CYP3A4) [%] | IC50 (OX1; OX1 (μM)) [µM]
1 | C[C@@H]1CCCN(C(=O)c2cc(Cl)ccc2-c2ncccn2)[C@@H]1CNc1ccc(C(F)(F)F)nn1 [Example A200, (5-Chloro-2-(pyrimidin-2-yl)phenyl)((2S,3R)-3-methyl-2-(((6-(trifluoromethyl)pyridazin-3-yl)amino)methyl)piperidin-1-yl)methanone] | 0.054 | 73 | 
2 | C[C@@H]1CCCN(C(=O)c2cc(F)ccc2-n2nccn2)[C@@H]1CNc1ccc(C(F)(F)F)cn1 [Example A310] |  | 75 | 0.003
3 | Cc1ccc(-n2ncc(C)n2)c(C(=O)N2CCC[C@@H](C)[C@H]2CNc2ccc(C(F)(F)F)nn2)c1 [Example A125, ((2S,3R)-3-Methyl-2-(((6-(trifluoromethyl)pyridazin-3-yl)amino)methyl)piperidin-1-yl)(5-methyl-2-(4-methyl-2H-1,2,3-triazol-2-yl)phenyl)methanone] | 0.025 | 75 | 
4 | Cc1ccc(-c2cnn(C)c2)c(C(=O)N2CCC[C@@H](C)[C@H]2CNc2nc3ccccc3o2)c1 [Example A2, ((2S,3R)-2-((Benzo[d]oxazol-2-ylamino)methyl)-3-methylpiperidin-1-yl)(5-methyl-2-(1-methyl-1H-pyrazol-4-yl)phenyl)methanone] | 0.061 | 93 | 
5 | Cc1ccc(-c2ncccn2)c(C(=O)N2CCC[C@@H](C)[C@H]2CNc2ncc(F)cc2F)c1 [Example A182, ((2S,3R)-2-(((3,5-Difluoropyridin-2-yl)amino)methyl)-3-methylpiperidin-1-yl)(5-methyl-2-(pyrimidin-2-yl)phenyl)methanone] | 0.14 | 65 | 
6 | Cc1ccc(-n2nccn2)c(C(=O)N2CCC[C@@H](C)[C@H]2CNc2ncc(C#N)cn2)n1 [Example A190, 2-((((2S,3R)-3-Methyl-1-(6-methyl-3-(2H-1,2,3-triazol-2-yl)picolinoyl)piperidin-2-yl)methyl)amino)pyrimidine-5-carbonitrile] | 2 | 24 | 
7 | Cc1ccc(-c2ncccn2)c(C(=O)N2CCC[C@@H](C)[C@H]2CNc2nnc(C(F)(F)F)s2)n1 [Example A187, ((2S,3R)-3-Methyl-2-(((5-(trifluoromethyl)-1,3,4-thiadiazol-2-yl)amino)methyl)piperidin-1-yl)(6-methyl-3-(pyrimidin-2-yl)pyridin-2-yl)methanone] | 0.2 | 40 | 
8 | Cc1ccc(-n2ccc(C)n2)c(C(=O)N2CCC[C@@H](C)[C@H]2CNc2nnc(C(F)(F)F)s2)c1 [Example A132, ((2S,3R)-3-Methyl-2-(((5-(trifluoromethyl)-1,3,4-thiadiazol-2-yl)amino)methyl)piperidin-1-yl)(5-methyl-2-(3-methyl-1H-pyrazol-1-yl)phenyl)methanone] | 0.16 | 81 | 
9 | Cc1ccc(-n2ccc(C)n2)c(C(=O)N2CCC[C@@H](C)[C@H]2CNc2ccc(C#N)cn2)c1 [Example A133, 6-((((2S,3R)-3-Methyl-1-(5-methyl-2-(3-methyl-1H-pyrazol-1-yl)benzoyl)piperidin-2-yl)methyl)amino)nicotinonitrile] | 0.093 | 89 | 
10 | Cc1cccc(-c2ncccn2)c1C(=O)N1CCC[C@@H](C)[C@H]1CNc1ncc(C(F)(F)F)cn1 [Example A307, ((2S,3R)-3-Methyl-2-(((5-(trifluoromethyl)pyrimidin-2-yl)amino)methyl)piperidin-1-yl)(2-methyl-6-(pyrimidin-2-yl)phenyl)methanone] | 0.25 | 46 | 
11 | Cc1ccc(-n2nccn2)c(C(=O)N2CCC[C@@H](C)[C@H]2CNc2ccc(F)cn2)c1 [Example A47, ((2S,3R)-2-(((5-Fluoropyridin-2-yl)amino)methyl)-3-methylpiperidin-1-yl)(5-methyl-2-(2H-1,2,3-triazol-2-yl)phenyl)methanone] | 0.15 | 56 | 
12 | Cc1ccc(-c2nn[nH]n2)c(C(=O)N2CCC[C@@H](C)[C@H]2CNc2ccc(C(F)(F)F)cn2)c1 [Example A23, ((2S,3R)-3-Methyl-2-(((5-(trifluoromethyl)pyridin-2-yl)amino)methyl)piperidin-1-yl)(5-methyl-2-(2H-tetrazol-5-yl)phenyl)methanone] | > 1 | 75 | 

Second part, led by results:

Row | IC50 (OX1; [1]) [µM] | inhibition at 10 µM (CYP3A4) [%] | Structure (SMILES) | IC50 (OX1; OX1 (μM)) [µM]
13 | 0.01 | 80 | Cc1ccc(-n2nccn2)c(C(=O)N2CCC[C@@H](C)[C@H]2CNc2nc3ccc(Cl)cc3o2)c1 [Example A14, ((2S,3R)-2-(((6-Chlorobenzo[d]oxazol-2-yl)amino)methyl)-3-methylpiperidin-1-yl)(5-methyl-2-(2H-1,2,3-triazol-2-yl)phenyl)methanone] | 
14 | 0.018 | 83 | C[C@@H]1CCCN(C(=O)c2cc(F)c(F)cc2-n2nccn2)[C@@H]1CNc1ccc(C(F)(F)F)cn1 [Example A249, (4,5-Difluoro-2-(2H-1,2,3-triazol-2-yl)phenyl)((2S,3R)-3-methyl-2-(((5-(trifluoromethyl)pyridin-2-yl)amino)methyl)piperidin-1-yl)methanone] | 
15 | 0.003 | 64 | Cc1ccc(-n2nccn2)c(C(=O)N2CCC[C@@H](C)[C@H]2CNc2nc3cc(F)ccc3o2)c1 [Example A129, ((2S,3R)-2-(((5-Fluorobenzo[d]oxazol-2-yl)amino)methyl)-3-methylpiperidin-1-yl)(5-methyl-2-(2H-1,2,3-triazol-2-yl)phenyl)methanone] | 
16 | 0.005 | 77 | C[C@@H]1CCCN(C(=O)c2c(F)cccc2-n2nccn2)[C@@H]1CNc1ccc(Cl)cn1 [Example A261, ((2S,3R)-2-(((5-Chloropyridin-2-yl)amino)methyl)-3-methylpiperidin-1-yl)(2-fluoro-6-(2H-1,2,3-triazol-2-yl)phenyl)methanone] | 
17 | 0.011 | 97 | Cc1ccc(-c2nccs2)c(C(=O)N2CCC[C@@H](C)[C@H]2CNc2ccc(C(F)(F)F)cn2)c1 [Example A24, ((2S,3R)-3-Methyl-2-(((5-(trifluoromethyl)pyridin-2-yl)amino)methyl)piperidin-1-yl)(5-methyl-2-(thiazol-2-yl)phenyl)methanone] | 
18 | 0.004 | 96 | Cc1ccc(-c2ccnc(C)c2)c(C(=O)N2CCC[C@@H](C)[C@H]2CNc2nc3cc(Cl)ccc3o2)c1 [Example A37, ((2S,3R)-2-(((5-Chlorobenzo[d]oxazol-2-yl)amino)methyl)-3-methylpiperidin-1-yl)(5-methyl-2-(2-methylpyridin-4-yl)phenyl)methanone] | 
19 | 0.005 | 53 | Cc1ccc(-c2ncccn2)c(C(=O)N2CCC[C@@H](C)[C@H]2CNc2ccc(Cl)cn2)n1 [Example A186, ((2S,3R)-2-(((5-chloropyridin-2-yl)amino)methyl)-3-methylpiperidin-1-yl)(6-methyl-3-(pyrimidin-2-yl)pyridin-2-yl)methanone] | 
20 | 0.017 | 96 | Cc1ccc(-c2cnn(C(C)C)c2)c(C(=O)N2CCC[C@@H](C)[C@H]2CNc2ccc(C(F)(F)F)cn2)c1 [Example A111, (2-(1-Isopropyl-1H-pyrazol-4-yl)-5-methylphenyl)((2S,3R)-3-methyl-2-(((5-(trifluoromethyl)pyridin-2-yl)amino)methyl)piperidin-1-yl)methanone] | 
21 | 0.002 | 84 | Cc1ccc(-n2ncc(C)n2)c(C(=O)N2CCC[C@@H](C)[C@H]2CNc2ccc(C(F)(F)F)cn2)c1 [Example A112, ((2S,3R)-3-Methyl-2-(((5-(trifluoromethyl)pyridin-2-yl)amino)methyl)piperidin-1-yl)(5-methyl-2-(4-methyl-2H-1,2,3-triazol-2-yl)phenyl)methanone] | 
22 | 0.004 | 69 | C[C@@H]1CCCN(C(=O)c2c(F)cccc2-n2nccn2)[C@@H]1CNc1ccc(C(F)(F)F)cn1 [Example A258, (2-Fluoro-6-(2H-1,2,3-triazol-2-yl)phenyl)((2S,3R)-3-methyl-2-(((5-(trifluoromethyl)pyridin-2-yl)amino)methyl)piperidin-1-yl)methanone] | 
23 | 0.01 | 59 | Cc1ccc(-n2cccn2)c(C(=O)N2CCC[C@@H](C)[C@H]2CNc2ccc(Cl)cn2)n1 [Example A168, ((2S,3R)-2-(((5-Chloropyridin-2-yl)amino)methyl)-3-methylpiperidin-1-yl)(6-methyl-3-(1H-pyrazol-1-yl)pyridin-2-yl)methanone] | 
24 | 0.005 | 72 | C[C@@H]1CCCN(C(=O)c2cccc(F)c2-c2ncccn2)[C@@H]1CNc1ccc(C(F)(F)F)cn1 [Example A233, (3-Fluoro-2-(pyrimidin-2-yl)phenyl)((2S,3R)-3-methyl-2-(((5-(trifluoromethyl)pyridin-2-yl)amino)methyl)piperidin-1-yl)methanone] | 
